Reference: patent publication US20260356860A1, “2-SUBSTITUTED 3,4A,5,7,8,8A-HEXAHYDRO-4H-THIOPYRANO[4,3-DJPYRIMIDIN-4-ONES FOR WOUND TREATMENT” (priority 2022, published 2026)

Key:
Test in all cases: Bacteriostasis, log reduction
Assay type in all cases: cell-based
[1] = tested on: S. aureus (derived from ATCC ® 6538 ™); conditions: S. aureus ATCC 6538
Method: (§1) In order to assess the log reduction capabilities of compounds of Formula (1), testing was performed on organisms that are found in acute and chronic wounds. Triplicate tubes were prepared for each bacteria using 50 μL of inoculum (about 1×10^6 CFU/mL) which was added to 450 μL of compound solution (compound of Formula (I)) (or 100 μL of inoculum in 900 μL of compound solution), resulting in a final inoculum of about 1×10^5 CFU/mL, as shown in Table 4.
(§2) Tubes were mixed with a vortex and then incubated in a shaking incubator at 175 RPM and 35° C. to 37° C.
(§3) Positive control in Tables 5a and 5b was 1 mL of 0.89% saline with 1 mL of the 1×10^6 CFU/mL of the organism.
(§4) For Compounds 1, 7, 8, 10, and 18 in Tables 6, 7-A, 7-B, 8, 9, 10-A, 10-B, and 11: The compound solutions were prepared with compound (30 mg), polysorbate 20 (1.6 mL), butylene glycol (1.6 mL), phosphatidyl choline (0.66 g), ethanol (1.6 mL), hydroxypropyl cellulose (0.26 g), and ultra pure water (24.9 mL).
(§5) XAV939 Control in Table X1 was XAV939 (30 mg), polysorbate 20 (1.6 mL), butylene glycol (1.6 mL), phosphatidyl choline (0.66 g), ethanol (1.6 mL), ultra pure water (24.9 mL), and hydroxypropyl cellulose (0.26 g).
(§6) GO-HA Control in Table X2 was GO-HA (30 mg), polysorbate 20 (1.6 mL), butylene glycol (1.6 mL), phosphatidyl choline (0.66 g), ethanol (1.6 mL), ultra pure water (24.9 mL), and hydroxypropyl cellulose (0.26 g).
(§7) For Compound 18+GO-HA in Tables 6 and X4: compound 18 (45 mg), GO-HA (45 mg), polysorbate 20 (2 mL), butylene glycol (2 mL), phosphotidyl choline (0.5 g), ethanol (2 mL), hydroxypropyl cellulose (0.40 g), and ultra pure water (40 mL).
(§8) For XAV939+GO-HA in Tables 6 and X3-A, and X3-B: XAV939 (45 mg), GO-HA (45 mg), butylene glycol (2 mL), polysorbate 20 (2 mL), phosphotidyl choline (0.5 g), ethanol (2 mL), hydroxypropyl cellulose (0.40 g), and ultra pure water (40 mL).
(§9) Testing was performed at two time points: 18 to 24 hours, and […].

[2] = tested on: E. coli (derived from ATCC ® 25922 ™); conditions: E. coli ATCC 25922
Method: as §1, §2, §3, §4, §5, §6, §7, §8, §9

[3] = tested on: S. aureus (MRSA) (derived from ATCC ® 33593 ™); conditions: S. aureus (MRSA) ATCC 33593
Method: as §1, §2, §3, §4, §5, §6, §7, §8, §9

[4] = tested on: E. coli (derived from ATCC ® 8739 ™); conditions: E. coli ATCC 8739
Method: as §1, §2, §3, §4, §5, §6, §7, §8, §9

[5] = tested on: P. aeruginosa (derived from ATCC ® 15442 ™); conditions: P. aeruginosa ATCC 15442
Method: as §1, §2, §3, §4, §5, §6, §7, §8, §9

[6] = tested on: S. epidermidis (derived from ATCC ® 14990 ™); conditions: S. epidermidis ATCC 14990
Method: as §1, §2, §3, §4, §5, §6, §7, §8, §9

Structure (SMILES): O=c1[nH]c(-c2ccc(-c3ccc(Br)nc3)cc2)nc2c1CSCC2 [Compound 7, 2-(4-(6-bromopyridin-3-yl)phenyl)-3,5,7,8-tetrahydro-4H-thiopyrano [4,3-d]pyrimidin-4-one]
- Average result ([1]; 24 h): 7.3 × 10^2
- Log Reduction ([1]; 24 h): 2.4
- Log Value ([1]; 24 h): 2.9
- Average result ([1]; 72 h): <200
- Log Reduction ([1]; 72 h): >3.0
- Log Value ([1]; 72 h): <2.3
- Average result ([2]; 24 h): 3.2 × 10^5
- Log Reduction ([2]; 24 h): No
- Log Value ([2]; 24 h): 5.5
- Average result ([2]; 72 h): 2.7 × 10^4
- Log Reduction ([2]; 72 h): 1.0
- Log Value ([2]; 72 h): 4.4
- Average result ([3]; 24 h): 2.7 × 10^3
- Log Reduction ([3]; 24 h): 1.2
- Log Value ([3]; 24 h): 3.4
- Average result ([3]; 72 h): 1.4 × 10^5
- Log Reduction ([3]; 72 h): No
- Log Value ([3]; 72 h): 5.1
- Average result ([4]; 24 h): 7.9 × 10^4
- Log Reduction ([4]; 24 h): 0.4
- Log Value ([4]; 24 h): 4.9
- Average result ([4]; 72 h): >3.6 × 10^6
- Log Reduction ([4]; 72 h): No
- Log Value ([4]; 72 h): >6.6
- Average result ([5]; 24 h): <200
- Log Reduction ([5]; 24 h): >3.1
- Log Value ([5]; 24 h): <2.3
- Average result ([5]; 72 h): <200
- Log Reduction ([5]; 72 h): >3.1
- Log Value ([5]; 72 h): <2.3
- Average result ([6]; 24 h): 2.8 × 10^4
- Log Reduction ([6]; 24 h): 0.4
- Log Value ([6]; 24 h): 4.4
- Average result ([6]; 72 h): <200
- Log Reduction ([6]; 72 h): >2.5
- Log Value ([6]; 72 h): <2.3

Structure (SMILES): CC(C)(OCCO)c1ccc(-c2nc3c(c(=O)[nH]2)CSCC3)cc1 [Compound 8, 2-(4-(2-(2-hydroxyethoxy)propan-2-yl)phenyl)-3,5,7,8-tetrahydro-4H-thiopyrano[4,3-d]pyrimidin-4-one]
- Average result ([1]; 24 h): 5.4 × 10^4
- Log Reduction ([1]; 24 h): 0.6
- Log Value ([1]; 24 h): 4.7
- Average result ([1]; 72 h): <7.4 × 10^3
- Log Reduction ([1]; 72 h): >1.4
- Log Value ([1]; 72 h): <3.9
- Average result ([2]; 24 h): 200
- Log Reduction ([2]; 24 h): 3.1
- Log Value ([2]; 24 h): 2.3
- Average result ([2]; 72 h): <200
- Log Reduction ([2]; 72 h): >3.1
- Log Value ([2]; 72 h): <2.3
- Average result ([3]; 24 h): 3.3 × 10^6
- Log Reduction ([3]; 24 h): No
- Log Value ([3]; 24 h): 6.5
- Average result ([3]; 72 h): 1.0 × 10^6
- Log Reduction ([3]; 72 h): No
- Log Value ([3]; 72 h): 6.0
- Average result ([4]; 24 h): 3.1 × 10^3
- Log Reduction ([4]; 24 h): 1.8
- Log Value ([4]; 24 h): 3.5
- Average result ([4]; 72 h): 6.8 × 10^4
- Log Reduction ([4]; 72 h): 0.5
- Log Value ([4]; 72 h): 4.8
- Average result ([5]; 24 h): 7.3 × 10^2
- Log Reduction ([5]; 24 h): 2.5
- Log Value ([5]; 24 h): 2.9
- Average result ([5]; 72 h): <200
- Log Reduction ([5]; 72 h): >3.1
- Log Value ([5]; 72 h): <2.3
- Average result ([6]; 24 h): 6.0 × 10^2
- Log Reduction ([6]; 24 h): 2.0
- Log Value ([6]; 24 h): 2.8
- Average result ([6]; 72 h): <200
- Log Reduction ([6]; 72 h): >2.5
- Log Value ([6]; 72 h): <2.3
